The source of these data is patent US8236984B2, “Compound and use thereof in the treatment of amyloidosis” (Pentraxin Therapeutics Ltd., priority 2007, dated 2012).

One assay deals with T1, transthyretin (Homo sapiens, UniProt P02766).
T1 construct: Native tetrameric transthyretin was purified from fractionated human plasma; from tissue; host or cells: human plasma
Description: Intrinsic fluorescence quenching of transthyretin by ligand titration. The assay is classed as binding. Particulars: 1 μM transthyretin, PBS pH 7.4, ligand 0-2 μM, excitation 280 nm, 20° C. How it is done:
3.2.1. Binding of 4ajm15 and mds84 by transthyretin. The interactions between the ligands 4ajm15 or mds84 and transthyretin were studied by monitoring intrinsic fluorescence in the emission range 300-500 nm on excitation at 280 nm using a Perkin Elmer LS55 fluorimeter and a standard 1 cm path length quartz cell at 20° C. Quenching of tryptophan was achieved by titrating 1 μM transthyretin in PBS, pH 7.4 with increasing concentrations of each ligand in the range 0-2 μM (FIG. 2A). […] At the same time the changes in 4ajm15 fluorescence upon binding to the protein were monitored in the emission range 400-600 nm and excitation at 340 nm that is the wavelength specific for 4ajm15 excitation. In these conditions, accumulation of the spectra highlights an isosbestic point at 483 nm (FIG. 2B). The same results were achieved by using mds84 (not shown). The results of the titration of 4ajm15 in presence and absence of transthyretin support a model of binding in which both the binding sites are simultaneously occupied by the palindromic ligand.
In each case increasing concentrations of ligand (0-2 μM) were added to 1 μM protein. The arrow in FIG. 2B indicates the isosbestic point at 483 nm occurring on formation of the protein ligand complex. […] The percent quenching represents ΔF/F0 where F0 is fluorescence intensity prior to the addition of ligands and AF is the decrease in fluorescence at a given ligand concentration.

Assay [1] deals with T2, wild type transthyretin isolated from plasma (Homo sapiens, UniProt P02766).
T2 construct: Native tetrameric transthyretin was purified from fractionated human plasma; from tissue; host or cells: human plasma
Description: Competition with 125I-T4 for binding by pure transthyretin. Particulars: 125 nM transthyretin, trace 125I-T4, pH 8.0, overnight 4° C.

Assay [2] addresses L55P variant transthyretin (Homo sapiens, UniProt P02766, L75P). Description: Mass spectrometric analysis of subunit exchange. Particulars: for subunit exchange of L55P transthyretin: in words. The arrangement: made in house. The assay is classed as biochemical. The protocol: 4.2 Mass spectrometric analysis of subunit exchange. Recombinant wild type, L55P and V30M transthyretin variants were biosynthetically labelled with isotopes [^15N] and [^15N, ^13C] as previously described (Keetch C A et al, 2005). Immediately prior to analysis, proteins were buffer exchanged into 20 mM ammonium acetate, pH 7.0 using Micro Biospin columns (Bio-Rad, UK). The subunit composition of transthyretin was monitored as a function of time by incubating an equimolar solution (4.4 μM) of [^15N] and [^15N, ^13C] labelled proteins in the presence of 2-fold molar excess of 4ajm15 in DMSO or 2.5% DMSO alone as a control. Each experiment was carried out in triplicate at room temperature and at 4° C. as well, since it is known that subunit exchange is accelerated at low temperatures. Nanoflow ESMS was performed on a QToF2 instrument (Waters/Micromass UK, Ltd.) modified for high mass operation (Sobott et al, (2002)) and calibrated externally using caesium iodide (100 mg/ml). Each solution, 1.5 μl, was electrosprayed from gold coated borosilicate capillaries prepared in-house as described (Nettleton E J, et al, 1998). To preserve the non-covalent interactions in the transthyretin tetramer, the MS parameters applied were: capillary voltage 1.6 kV, sample cone 160 V, extractor cone 20 V, ion transfer stage pressure 7.0×10 ^−3 mbar, quadrupole analyzer pressure 9.5×10^−4 mbar and ToF analyzer pressure 1.7×10^−6 mbar. Data were processed with MassLynx software (Waters/Micromass UK, Ltd.) and are presented with minimal smoothing and without background subtraction.
This most unstable transthyretin variant rapidly undergoes spontaneous and extensive subunit exchange, as illustrated in FIG. 8. FIGS. 9-11 show the effects of decreasing molar ratios of mds84 on inhibition of subunit exchange. […] At lower molar ratios of mds84 some exchange takes place but the transthyretin molecules which bind mds84 are still completely stabilized.

The target in assay [3] is T3, wild type transthyretin (Homo sapiens, UniProt P02766). Description: Inhibition of transthyretin aggregation at acidic pH (turbidity at 400 nm). The assay is classed as biochemical. On the set-up: isolated from pooled normal human plasma, was obtained from Scipac; purchased Scipac Ltd, Sittingbourne, Kent, UK; host or cells: pooled normal human plasma. Particulars: pH 4.4, 3 d 37° C. The protocol: 3.3.1 Wild type transthyretin. The purified wild type transthyretin (liquid and lyophilised) used in these experiments, isolated from pooled normal human plasma, was obtained from Scipac, (Sittingbourne, Kent, UK). Protein concentration was determined by absorbance at 280 nm after correction for light scattering at 320 nm using the absorption coefficient E1 cm^1%=14.0. […] Nano electrospray ionisation mass spectrometry confirmed the presence of normal and cysteinylated transthyretin monomers (Terazaki et al, 1998) under denaturing conditions, and solvent-bound transthyretin tetramer (Nettleton et al, 1998) under mild desolvation conditions.
3.3.2 Inhibition of transthyretin aggregation by 4ajm15: In pilot experiments, transthyretin aggregates were formed from wild type transthyretin (3.6 μM) after incubation at acidic pH for 3 d at 37° C. (Colon and Kelly, 1992). The efficacy of 4ajm15 as an inhibitor of transthyretin aggregate formation was then compared with other transthyretin ligand compounds. […] After 30 min at 37° C., the pH was adjusted to pH 4.4 (with 0.2 M sodium acetate buffer pH 4.0), and the ˜1 ml mixtures were incubated unstirred for 3 d at 37° C.
Using the same method the activities of mds84 and 4ajm15 as inhibitors of the aggregation of both wild type transthyretin and the most aggressively aggregating transthyretin variant, L55P, were evaluated in triplicate with both proteins at 3.6 μM and with one (3.6 μM) or 3 equivalents (10.8 μM) of each ligand. Wild type transthyretin was studied at pH 4.4 and L55P at pH 5.0. […] Mean values and standard deviations are shown in Table 2 and in FIG. 4, where results with 1:1 molar ratio are shown cross hatched and 3:1 molar ratio in open bars.

The target of assay [4] is T3, wild type transthyretin. Description: Differential scanning calorimetry of transthyretin with ligand. The assay is classed as binding. The arrangement: isolated from pooled normal human plasma, was obtained from Scipac; purchased Scipac Ltd, Sittingbourne, Kent, UK; host or cells: pooled normal human plasma.
The mark [5] stands for this setting: five fold molar excess of ligand.

“Also recorded” adds a separate entry of the source.

Turning to `O=C(O)c1ccccc1Nc1cc(Cl)c(OCCCCCCCOc2c(Cl)cc(Nc3ccccc3C(=O)O)cc2Cl)c(Cl)c1` [mds84, 2,2′-(4,4′-(heptane-1,7-diylbis(oxy))bis(3,5-dichloro-4,1-phenylene))bis(azanediyl)dibenzoic acid], on transthyretin, the “intrinsic fluorescence of transthyretin remaining after titration” value is recorded as 40%. In addition, the IC50 in assay [1] was 150 ± 25 nM. Besides, the “ligand bound per mole of transthyretin for complete stabilization” value in assay [2] (L55P variant, decreasing molar ratios of ligand) was “one mole”. Further, the “subunit exchange of L55P transthyretin” value in assay [2] is reported as “completely inhibits all subunit exchange”. For the same compound, the “Aggregation of transthyretin, Mean (1:1)” value on wild type transthyretin [3] (wild type 3.6 μM, ligand 3.6 μM) is on record as 1.7 per cent of control with DMSO alone. Further, the “Aggregation of transthyretin, Mean (3:1)” value on wild type transthyretin [3] (wild type 3.6 μM, ligand 10.8 μM) was 2 per cent of control with DMSO alone. In addition, at wild type transthyretin [4] (setting [5]), the “Tm of wild type transthyretin with the ligand” value was found to be 107.5 °C and the “increase in Tm of wild type transthyretin” value came out at 6.2 °C.

With `O=C(O)c1ccccc1Nc1cc(Cl)c(OCCCCCCCCCCCOc2c(Cl)cc(Nc3ccccc3C(=O)O)cc2Cl)c(Cl)c1` [4ajm15, 2,2′-(4,4′-(undecane-1,11-diylbis(oxy))bis(3,5-dichloro-4,1-phenylene))bis(azanediyl)dibenzoic acid], the “intrinsic fluorescence of transthyretin remaining after titration” value on transthyretin stood at 40%. The same compound registered a concentration for half-maximal inhibition (IC50) in assay [1] of 200 ± 70 nM. Moreover, the “subunit exchange of L55P transthyretin” value in assay [2] is listed as “Exactly the same effect”. For the same compound, at wild type transthyretin [3] (wild type, in words), the “transthyretin aggregate formation in the presence of ligand” value is “dramatically reduced; also recorded: identical to those with mds84”. The “midpoint of thermal denaturation (Tm) in the presence of ligand” value on wild type transthyretin [4] (preliminary DSC, 0.02 mM tetramer, 0.2 mM ligand, PBS pH 7.4, 2% DMSO, transthyretin alone 99.5) came to 103.6 °C.
